From patent US20170112858A1, “Extended Release Aspirin” (New Haven Pharmaceuticals, Inc., priority 2015, published 2017)

Tests used:
Type in all cases: in vivo, human
[1] = system: serum TxB2 production; assay: Single dose inhibition of serum TxB2 production in healthy adults (enzyme immunoassay); conditions: highest doses: ER ASA 81, 162.5, 325 mg; IR ASA 40, 81 mg
Protocol: (§1) Healthy adults were randomized to receive single doses of extended release ASA (“ER ASA”) at a dosage of 20 mg, 40 mg, 81 mg, 162.5 mg ER ASA (Durlaza®; New Haven Pharmaceuticals, Inc., North Haven, Conn.), or 325 mg, or immediate release ASA (“IR ASA”; aspirin powder USP; Letco Medical, Decatur, Ala.) at a dosage of 5 mg, 10 mg, 20 mg, 40 mg or 81 mg. […] For pharmacodynamic assessments, serum 11-dehydro-thromboxane (“TxB2”, a stable metabolite of thromboxane A2) levels were assessed using a validated enzyme immunoassay kit in serial blood samples collected 1 hour before dosing and at 0.5, 1, 2, 4, 8, 16, and 24 hours after drug administration.

[2] = system: 2, 3-dinor-6-keto-PGF1α (prostacyclin); assay: Excretion of prostacyclin metabolite, urine GC/MS (Example 3)
Protocol: (§2) Subjects of Group 1 were randomly administered a placebo, 81 mg IR ASA and 162.5 mg IR ASA. Subjects of Group 2 were randomly administered a placebo, 81 mg ER ASA and 162.5 mg ER ASA (Durlaza®). Each subject was prohibited from taking any aspirin for two weeks prior to being administered the randomly chosen drug daily for 1 week followed by a urine collection 24 hours after dosing. This protocol was repeated two additional times. For each urine collection TxB2 and 2, 3-dinor-6-keto-PGF1α (“prostacyclin”) levels were measured using gas chromatography-mass spectrometry (“GC/MS”). Statistical analysis was done using Wilcoxon rank sum test for continuous variables and the Pearson test for categorical variables.

[3] = system: endothelial function; assay: Reactive hyperemia index (ENDOPAT pulsatile arterial tonometry)
Protocol: Endothelial function was assessed using the ENDOPAT system ([…] Medical, Israel), a pulsatile arterial tonometry-based diagnostic device, at Visit 2, Visit 3, Visit 5, and Visit 6 predose. The reactive hyperemia index (“RHI”), a measure of endothelial function, and the augmentation index (“AI”), a measure of arterial stiffness, were determined. Endothelial dysfunction is defined as RHI <1.67. Normal arterial stiffness is defined as an AI -30% to -10%, increased arterial stiffness as an AI >-10% to 10%, and abnormal arterial stiffness as an AI >10%. The RHI measures vessel pliability which is a surrogate for nitric oxide production. The production of nitric oxide inhibits platelet aggregation. Thus, determining nitric oxide production following Durlaza® dosing is important to understanding its affect on platelet inhibition.

[4] = Single dose ASA pharmacokinetics in healthy adults (serial blood samples)
Protocol: as §1

[5] = system: platelet aggregation; assay: Light transmittance aggregometry (LTA), AA-, collagen-, ADP-induced, in type II diabetes subjects with vascular disease or CVD risk factors; conditions: trough
Protocol: High platelet reactivity has previously been implicated in incomplete inhibition during therapy with immediate release low-dose aspirin in patients with type II diabetes. The main study consisted of a run-in phase where subjects were administered 81 mg, everyday (“QD”), of immediate release acetylsalicylic acid (“IR ASA”) for 7-28 days. […] For this study the trough level data are from the following timepoints: (1) for 81 mg—the data at Visit 2; […]

[6] = system: High Sensitive C-Reactive Protein (hs-CRP); assay: High Sensitive C-Reactive Protein test (Immulite 2000 Xpi)
Protocol: Subjects were also measured for high sensitive C-reactive protein (“hs-CRP”) levels at Visit 1, Visit 2, Visit 3 pre-dose, Visit 3 at 24 hours, Visit 6 pre-dose and Visit 6 at 24 hours.
High Sensitive C-Reactive Protein (“hs-CRP”) was measured using a Seimens Immulite 2000® Xpi analyzer (Immulite 2000 is a registered trademark of Siemens Healthcare Diagnostic, Inc.), prior to 162.5 mg ER ASA (Durlaza®) dosing at Visit 2 pre-dose, at Visit 3 pre-dose and Visit 3 at 24-hr post-dose for the 162.5 mg ER ASA (Durlaza®) dose, and at Visit 6 pre-dose and Visit 6 at 24-hr post-dose for the 325 mg ER ASA dose.

[7] = system: TxB2; assay: Excretion of thromboxane metabolite, urine GC/MS (Example 3)
Protocol: as §2

[8] = Visit 2, 81 mg IR QD (vs. Visit 3 pre dose)
[9] = Visit 2, 81 mg IR QD (vs. Visit 6 pre dose)

- time required to reach the maximum concentration of ASA ([4]; all doses, single dose): 1 to 2 h
- AUClast of ASA ([4]; single dose 40 mg): 384 ng·h/mL
- AUClast of ASA ([4]; single dose 81 mg): 865 ng·h/mL
SMILES: CC(=O)Oc1ccccc1C(=O)O [IR ASA, acetylsalicylic acid]
- single dose inhibition of TxB2 production [1]: maintained during a 24-hour period
- Bradykinin-stimulated prostacyclin levels, over placebo ([2]; 81 mg daily): significantly reduced
- Bradykinin-stimulated prostacyclin levels, over placebo ([2]; 162.5 mg daily): significantly reduced
- subjects with RHI < 1.67 (n, %) ([3]; HPT Group, Visit 5, 81 mg IR ASA QD): 4 (44) n, %
- subjects with RHI < 1.67 (n, %) ([3]; Visit 2, 81 mg IR ASA QD): 11 (27.5) n, %
- LTA (%) 2 mM AA (Final), first line so headed [5, 8]: 5 ± 12%
- LTA (%) 2 mM AA (Final), second line so headed [5, 8]: 6 ± 13%
- LTA (%) 2 mM AA (Final), first line so headed [5, 9]: 3 ± 2%
- LTA (%) 2 mM AA (Final), second line so headed [5, 9]: 3 ± 2%
- subjects with hs-CRP >3 mg/L (n, %) ([6]; V2 pre-dose, 81 mg IR ASA): 23 (57) n, %
- patients meeting the criteria for elevated CRP ([6]; during 81 mg IR ASA therapy, total study population): 47%
- Bradykinin-stimulated TxB2 levels 4 hours post-dosing, over placebo ([7]; 81 mg daily): significantly reduced
- Basal urinary TxB2 levels 24 hours post-dosing, over placebo ([7]; 81 mg daily for 1 week): significantly reduced
- Bradykinin-stimulated TxB2 levels 4 hours post-dosing, over placebo ([7]; 162.5 mg daily): significantly reduced
- Basal urinary TxB2 levels 24 hours post-dosing, over placebo ([7]; 162.5 mg daily for 1 week): significantly reduced
- dose dependence of the effect on TxB2 synthesis ([7]; 81 vs 162.5 mg): not seen
